{
  "source": "patent US12576107B2",
  "about": "“Methods of treating chronic inflammatory diseases” (METIMEDI PHARMACEUTICALS CO., LTD., priority 2018, dated 2026)",
  "key": {"[1]": {"system": "High cholesterol diet supplied ApoE-deficient mice (Atherosclerosis)", "assay": "Vascular disease (atherosclerosis) model, high fat diet ApoE-deficient mice", "format": "in vivo, BALB/c ApoE^shi mice", "procedure": "Animals. […] Fibe-week old male BALB/c ApoE^shi mice were obtained from Japan SLC Inc. (Shizuoka, Japan) and bred under specific-pathogen-free (SPF) conditions. All animals were maintained in a 12-hour light/dark cycle at 22-25° C. with free access to food and water.\n(§1) Calcium lactate was purchased from Sigma Aldrich (St. Louis, MO, USA).\nAnimal model for vascular disease. BALB/c ApoE^shi species is used for spontaneous induction of vascular disease. In this investigation, a high fat (40%) diet was provided for 4 weeks to induce strong atherosclerosis.\nHistological analysis. The thoracic aorta was transected, and a half of the aorta was fixed in 10% neutral buffer formalin fixative solution. Then, histological analysis was performed. Histological analysis was performed with H&E and Oil red O staining. Aortic wall thickness, atherosclerotic plaque areas, foam cell numbers, and lipidated regions were analyzed.\nStatistical analysis. Statistical analysis was performed using SPSS statistics, and the results were analyzed using Student t-test. Histologic analysis was performed using the Mann-Whitney method. P<0.05 was considered statistically significant."}, "[2]": {"system": "LPS-damaged brain of rats", "assay": "Alzheimer and stroke model, intracranial injection of LPS", "format": "in vivo, Sprague-Dawley (SD) rats", "details": "2 mg/kg daily subcutaneous 21 days", "procedure": "Animals. […] Eight-week old male Sprague-Dawley (SD) rats were obtained from Samtako Co. (Osan, Gyeonggi-do, Republic of Korea) and bred under specific-pathogen-free (SPF) conditions. All animals were maintained in a 12-hour light/dark cycle at 22-25° C. with free access to food and water.\nDissolve 1 mg of LPS powder in 1 ml of saline. Keep the tubes on ice if LPS is going to be used fresh. For long storage, screw cap vials are preferred. The aliquots were stored at −20° C. Calcium lactate was purchased from Sigma Aldrich (St. Louis, MO, USA).\nIntracranial injection of LPS. The animals were placed in a small acrylic cage that was coupled with an anesthesia machine that allowed them to breathe freely under gaseous anesthesia (2% isoflurane, Spartanburg, SC, USA). […] The animal fur of head was shaved with an electric clipper, and the skin was swabbed with iodine. LPS was kept it on ice before use. All the surgical materials disinfected with 70% ethanol. Hamilton syringe barrel inner space was cleaned with distilled water and 70% ethanol. The Hamilton syringe was placed in the syringe holder. The animal in the stereotaxic apparatus was placed on horizontal position. A midline incision (about 1 cm) on the skin of head was made with the scalpel. The needle of Hamilton syringe was placed on the bregma. Read the three coordinates (AP: −3.6, LM: 2.0, and DV: −3.8) on the manipulator (in mm) and write them down; this was used for starting point. Slowly, set the DV coordinate of the injection point; this inserts the needle tip into the brain until the injection point. The LPS solution (2 μl) was released at an approximate flow rate of 0.5 μl/min. After the injection, the needle was removed very slowly. The wound area was closed by suturing, and then disinfectant was applied. The rat was marked for further identification.\nImmunohistochemistry. Brain tissue was sectioned at 5 μm on cryostat and stained for histological examination. Microscopic images were obtained at 200× magnification. […]"}, "[3]": {"system": "laser-induced AMD mice", "assay": "Laser-induced age-related macular degeneration (AMD) animal model", "format": "in vivo, C57BL/6 mice", "procedure": "Six-week-old female C57BL/6 mice (20-25 g) were purchased from Orient (Charles River Korea, Seoul, Korea). All animals were maintained in a 12-hour light/dark cycle (light on, 08:00) at 22° C.-25° C. with free access to food and water. The mice were placed individually in an induction chamber, and anesthesia was induced with 2% isoflurane (HANA PHARM CO., Seoul, Korea). The lesions were induced in each eye of the mice by laser photocoagulation (SDL405-700, SD Laser, China). The laser pulses were from blue laser (wavelength, 405 nm; SD Laser). Laser parameters were 100 μm spot size, 700 mw power and 1 s exposure time. A total of 15 mice were randomized into three groups: (i) not subjected to laser induction (n=3); (ii) subjected to laser burns and injected with the vehicle buffer (n=5); and (iii) CaLa, 2 mg/kg/day (B.I.D) (n=7). CaLa treatment was started the days after laser photocoagulation and was treated subcutaneously for 14 days. (33, 34)\nThe histopathologic examination of retinal lesions was performed 2 weeks after 2 mg/kg of CaLa was administered subcutaneously. The enucleated eyes were fixed with 4% paraformaldehyde (PFA) for 24 h at 4° C., and eyes obtained by removing the anterior segments were washed three times in phosphate-buffered saline. The fixed flat-mounts were dehydrated in a graded series of ethanol and embedded in paraffin. […] The choroidal lesion and neovascularization on the flat-mounts were observed by confocal microscopy (Carl Zeiss, Oberkochen, Germany).\nAnimals. […] Six-week-old C57BL mice were purchased from Orient (Charles River Korea, Seoul, Korea). All animals were maintained in a 12-hour light/dark cycle (light on, 08:00) at 22-25° C. with free access to food and water.\nas §1\nAnimal model for ocular disease. The mice were placed individually in an induction chamber, and anesthesia was induced with 2% isoflurane (HANA PHARM CO., Seoul, Korea). The laser-induced rupture of Bruch's membrane was induced in both eyes of mice by laser photocoagulation (SDL405-700, SD Laser, China). […]"}, "[4]": {"details": "2 mg/kg daily subcutaneous, male ApoE-deficient mice, mean ± S.E.M."}, "[5]": {"details": "male ApoE-deficient mice, n = 8, mean ± S.E.M."}},
  "data": [
    {"smiles": "CC(O)C(=O)[O-].CC(O)C(=O)[O-].[Ca+2]", "note": "(stereo not shown) [calcium lactate]", "values": [
      {"measurement": "ATHEROSCLEROTIC PLAQUE AREAS", "setting": "[1]; [4]", "result": "0.10 ± 0.03^++ mm^2"},
      {"measurement": "FOAM CELL NUMBERS", "setting": "[1]; [4]", "result": "39.00 ± 10.13^+ cells/mm^2"},
      {"measurement": "LIPID DEPOSITED REGIONS", "setting": "[1]; [4]", "result": "0.09 ± 0.03^++ mm^2"},
      {"measurement": "MEAN AORTA WALL THICKNESS", "setting": "[1]; [4]", "result": "85.83 ± 8.70^+ μm"},
      {"measurement": "atherosclerotic lesions of aorta (H&E, oil red O)", "setting": "[1]; ApoE-deficient mice", "result": "decreased"},
      {"measurement": "pathogenic factors cholesterol (TCHO), LDL cholesterol (LDL), triglycerides (TG), HDL-cholesterol (HDL)", "setting": "[1]; ApoE-deficient mice, blood", "result": "not controlled"},
      {"measurement": "HDL (clinical blood biochemistry)", "setting": "[1]; [5]", "result": "197.2 ± 3.7", "unit": "mg/dL"},
      {"measurement": "LDL (clinical blood biochemistry)", "setting": "[1]; [5]", "result": "1537.1 ± 14.2", "unit": "mg/dL"},
      {"measurement": "TCHO (clinical blood biochemistry)", "setting": "[1]; [5]", "result": "2328.0 ± 56.7", "unit": "mg/dL"},
      {"measurement": "TG (clinical blood biochemistry)", "setting": "[1]; [5]", "result": "54.8 ± 2.8", "unit": "mg/dL"},
      {"measurement": "damaged brain tissue", "setting": "[2]", "result": "Recovery"},
      {"measurement": "inflammatory reaction, which exacerbates Alzheimer's and stroke", "setting": "[2]", "result": "greatly reduced"},
      {"measurement": "microglia infiltration (Iba-1) in brain", "setting": "[2]", "result": "reduction"},
      {"measurement": "choroidal lesion (fluorescence, flat-mount)", "setting": "[3]; 2 mg/kg daily subcutaneous", "result": "restored"},
      {"measurement": "choroidal neovascularization (fluorescence, flat-mount)", "setting": "[3]; 2 mg/kg daily subcutaneous", "result": "restored"},
      {"measurement": "morphology of the retinal pigment epithelium (H&E)", "setting": "[3]; 2 mg/kg subcutaneous, choroidal flat-mount", "result": "recovered"}
    ]}
  ]
}
